From PubChem BioAssay (NCI)
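Five compound concentrations were applied to cells in 96-well plates for 48 hours; endpoints were derived by simple linear interpolation of the resulting dose-response curve. GI50 is the concentration that inhibits growth by half. Definition used: TGI = concentration required for complete inhibition of growth.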

Key:
Assay in all cases: DTP human tumour cell line panel, 48 h
ACHN renal = test system: ACHN renal
COLO 205 colon = test system: COLO 205 colon
HCT-116 colon = test system: HCT-116 colon
HCT-15 colon = test system: HCT-15 colon
PC-3 prostate = test system: PC-3 prostate
SF-539 CNS = test system: SF-539 CNS
SK-OV-3 ovarian = test system: SK-OV-3 ovarian
UACC-62 melanoma = test system: UACC-62 melanoma
UO-31 renal = test system: UO-31 renal
MALME-3M melanoma = test system: MALME-3M melanoma

Work on c1csc(C(NC2=NCCO2)C2CC2)c1 (centres undefined) yielded a TGI (ACHN renal) of over 100 µM, a TGI (COLO 205 colon) of over 100 µM and a TGI (HCT-116 colon) of over 100 µM. It also gave a TGI (HCT-15 colon) of over 100 µM, a TGI (PC-3 prostate) of over 100 µM and a TGI (SF-539 CNS) of over 100 µM. It also gave a TGI (SK-OV-3 ovarian) of over 100 µM, a TGI (UACC-62 melanoma) of over 100 µM and a TGI (UO-31 renal) of over 100 µM.
O=C([O-])C1([n+]2c(-c3ccccc3)cc(-c3ccccc3)cc2-c2ccccc2)CC1 was tested, and the TGI (ACHN renal) was over 100 µM, the TGI (HCT-116 colon) was over 100 µM and the TGI (HCT-15 colon) was over 100 µM. For the same molecule, the TGI (MALME-3M melanoma) was over 100 µM, the TGI (PC-3 prostate) was over 100 µM and the TGI (SF-539 CNS) was over 100 µM. For the same molecule, the TGI (UACC-62 melanoma) was 67.7 µM.
CC(N)=O.[Cl][Pt][Cl].[NH-]c1ccn(C2OC(CO)C(O)C2O)c(=O)n1 (centres undefined) gave a TGI (ACHN renal) of over 100 µM, a TGI (COLO 205 colon) of over 100 µM and a TGI (HCT-116 colon) of over 100 µM. For the same molecule, the TGI (HCT-15 colon) was over 100 µM, the TGI (MALME-3M melanoma) was over 100 µM and the TGI (PC-3 prostate) was over 100 µM. The TGI (SF-539 CNS) was over 100 µM, the TGI (SK-OV-3 ovarian) was over 100 µM and the TGI (UACC-62 melanoma) was over 100 µM. It also gave a TGI (UO-31 renal) of over 100 µM.
In the case of O=S(=O)(c1ccc2ccccc2c1)N1CCN(S(=O)(=O)c2ccc3ccccc3c2)CC1, the TGI (ACHN renal) is reported as over 100 µM, the TGI (COLO 205 colon) is reported as over 100 µM and the TGI (HCT-116 colon) is reported as over 100 µM. The TGI (HCT-15 colon) was over 100 µM, the TGI (MALME-3M melanoma) was over 100 µM and the TGI (PC-3 prostate) was over 100 µM. It also gave a TGI (SK-OV-3 ovarian) of over 100 µM, a TGI (UACC-62 melanoma) of over 100 µM and a TGI (UO-31 renal) of over 100 µM.
Molecule Clc1cccc(C2SCc3nc4ccccc4n32)c1 (centres undefined) has a TGI (ACHN renal) of 99.2 µM, a TGI (COLO 205 colon) of 15.1 µM and a TGI (HCT-15 colon) of 44 µM. For the same molecule, the TGI (MALME-3M melanoma) was 62.1 µM, the TGI (SF-539 CNS) was 48.2 µM and the TGI (SK-OV-3 ovarian) was 52.7 µM. The TGI (UACC-62 melanoma) was 36.5 µM.
CO/C(=N\N=C(/c1ccccc1)C(F)(F)F)c1ccncc1 gave a TGI (COLO 205 colon) of over 100 µM, a TGI (HCT-116 colon) of over 100 µM and a TGI (HCT-15 colon) of over 100 µM. For the same molecule, the TGI (MALME-3M melanoma) was over 100 µM, the TGI (PC-3 prostate) was over 100 µM and the TGI (SK-OV-3 ovarian) was over 100 µM. It also gave a TGI (UACC-62 melanoma) of over 100 µM and a TGI (UO-31 renal) of over 100 µM.
Clc1ccc(-c2nnc(-c3nsc4ccccc34)o2)cc1 showed a TGI (ACHN renal) of over 100 µM, a TGI (COLO 205 colon) of over 100 µM and a TGI (HCT-116 colon) of 42.9 µM. The TGI (HCT-15 colon) was over 100 µM, the TGI (SF-539 CNS) was 48.9 µM and the TGI (UACC-62 melanoma) was over 100 µM. For the same molecule, the TGI (UO-31 renal) was 47.5 µM.
N/C(=N\N=C/c1cc([N+](=O)[O-])cc([N+](=O)[O-])c1O)NO showed a TGI (COLO 205 colon) of over 31.6 µM, a TGI (HCT-116 colon) of over 100 µM and a TGI (HCT-15 colon) of over 100 µM. The TGI (MALME-3M melanoma) was over 100 µM, the TGI (SF-539 CNS) was over 100 µM and the TGI (SK-OV-3 ovarian) was over 100 µM. It also gave a TGI (UACC-62 melanoma) of over 31.1 µM and a TGI (UO-31 renal) of over 100 µM.
CC(=O)Nc1cc(/C=C\C(=O)N2CC(CCl)c3c2cc(N)c2ccccc32)n(C)n1 (centres undefined) was tested, and the TGI (COLO 205 colon) was 0.0901 µM, the GI50 (HCT-15 colon) was 0.0167 µM and the TGI (HCT-15 colon) was over 100 µM. The TGI (PC-3 prostate) was over 100 µM, the TGI (SF-539 CNS) was 0.0214 µM and the GI50 (SK-OV-3 ovarian) was 0.0311 µM. For the same molecule, the TGI (UACC-62 melanoma) was 0.0284 µM and the TGI (UO-31 renal) was 0.0214 µM.
With Cc1cc(C)c(S(=O)(=O)N(CCCN)OCCCN)c(C)c1 the TGI (ACHN renal) was over 100 µM, the TGI (COLO 205 colon) was over 100 µM and the TGI (HCT-116 colon) was over 100 µM. For the same molecule, the TGI (MALME-3M melanoma) was over 100 µM, the TGI (PC-3 prostate) was over 100 µM and the TGI (SF-539 CNS) was over 100 µM. The TGI (SK-OV-3 ovarian) was over 100 µM, the TGI (UACC-62 melanoma) was over 100 µM and the TGI (UO-31 renal) was over 100 µM.
Fc1ccc(C(OCCN2CC3CC2CN3)c2ccc(F)cc2)cc1 (centres undefined) was tested, and the TGI (ACHN renal) was over 100 µM, the TGI (COLO 205 colon) was 33.5 µM and the TGI (HCT-15 colon) was over 100 µM. For the same molecule, the TGI (MALME-3M melanoma) was 32.3 µM, the TGI (PC-3 prostate) was over 100 µM and the TGI (SF-539 CNS) was over 100 µM. For the same molecule, the TGI (SK-OV-3 ovarian) was over 100 µM and the TGI (UACC-62 melanoma) was 37.3 µM.
CCN1C(=O)N2C(OC)c3ccccc3C(Br)C2(OC)C1=O (centres undefined) was tested, and the TGI (COLO 205 colon) was over 100 µM, the TGI (HCT-15 colon) was over 100 µM and the TGI (MALME-3M melanoma) was over 100 µM. It also gave a TGI (SK-OV-3 ovarian) of over 100 µM, a TGI (UACC-62 melanoma) of over 100 µM and a TGI (UO-31 renal) of over 100 µM.
N=C(N)c1ccc(N=Nc2c(O)ccc3cc(O)ccc23)cc1 showed a TGI (ACHN renal) of over 100 µM, a TGI (COLO 205 colon) of over 100 µM and a TGI (HCT-116 colon) of over 100 µM. The TGI (HCT-15 colon) was over 100 µM, the TGI (MALME-3M melanoma) was over 100 µM and the TGI (PC-3 prostate) was over 100 µM. It also gave a TGI (SF-539 CNS) of over 100 µM, a TGI (SK-OV-3 ovarian) of over 100 µM and a TGI (UACC-62 melanoma) of over 100 µM. For the same molecule, the TGI (UO-31 renal) was over 100 µM.
Molecule O=C(/C=C\c1ccc(/C=C/C(=O)Nc2cccc(C3=NCCCN3)c2)cc1)Nc1cccc(C2=NCCCN2)c1 has a TGI (COLO 205 colon) of over 100 µM, a TGI (HCT-116 colon) of over 100 µM and a TGI (HCT-15 colon) of over 100 µM. It also gave a TGI (MALME-3M melanoma) of over 100 µM, a TGI (SF-539 CNS) of over 100 µM and a TGI (SK-OV-3 ovarian) of over 100 µM. The TGI (UO-31 renal) was over 100 µM.
Work on CC1=NN(C(=O)c2ccc(C)cc2)C(=O)C1N=Nc1ccccc1C(=O)O (centres undefined) yielded a TGI (COLO 205 colon) of over 100 µM, a TGI (HCT-116 colon) of over 100 µM and a TGI (HCT-15 colon) of over 100 µM. For the same molecule, the TGI (MALME-3M melanoma) was over 100 µM, the TGI (SF-539 CNS) was over 100 µM and the TGI (SK-OV-3 ovarian) was over 100 µM. The TGI (UACC-62 melanoma) was over 100 µM and the TGI (UO-31 renal) was over 100 µM.
Work on CC1CCN(c2cc(-c3cc4ccccc4o3)oc(=O)c2C#N)CC1 yielded a TGI (ACHN renal) of over 100 µM, a TGI (COLO 205 colon) of over 100 µM and a TGI (HCT-116 colon) of over 100 µM. The TGI (HCT-15 colon) was over 100 µM, the TGI (MALME-3M melanoma) was over 100 µM and the TGI (SF-539 CNS) was over 100 µM. The TGI (UO-31 renal) was over 100 µM.
CCOC(=O)[C@H]1Nc2c(cccc2[N+](=O)[O-])C2c3ccccc3CC21 (some centres undefined) was tested, and the TGI (ACHN renal) was over 100 µM, the TGI (COLO 205 colon) was over 100 µM and the TGI (HCT-116 colon) was over 100 µM. It also gave a TGI (HCT-15 colon) of over 100 µM, a TGI (MALME-3M melanoma) of over 100 µM and a TGI (SF-539 CNS) of over 100 µM. For the same molecule, the TGI (UACC-62 melanoma) was over 100 µM and the TGI (UO-31 renal) was over 100 µM.
For Cc1ccc2oc3c(ccc(=O)n3C)c(=O)c2c1, the TGI (ACHN renal) was over 100 µM, the TGI (COLO 205 colon) was over 100 µM and the TGI (HCT-116 colon) was over 100 µM. It also gave a TGI (HCT-15 colon) of over 100 µM, a TGI (MALME-3M melanoma) of over 100 µM and a TGI (PC-3 prostate) of over 100 µM. The TGI (SF-539 CNS) was over 100 µM, the TGI (SK-OV-3 ovarian) was over 100 µM and the TGI (UACC-62 melanoma) was over 100 µM. For the same molecule, the TGI (UO-31 renal) was over 100 µM.
In the case of O=c1[nH]c(=S)[nH]c2c(C3OC(CO)C(O)C3O)nsc12 (centres undefined), the TGI (COLO 205 colon) is reported as over 100 µM, the TGI (HCT-116 colon) is reported as over 100 µM and the TGI (HCT-15 colon) is reported as over 100 µM. It also gave a TGI (MALME-3M melanoma) of over 100 µM, a TGI (PC-3 prostate) of over 100 µM and a TGI (SF-539 CNS) of over 100 µM. For the same molecule, the TGI (SK-OV-3 ovarian) was over 100 µM and the TGI (UACC-62 melanoma) was over 100 µM.
For CCOc1cc(/C=C/C(=O)CC(=O)/C=C/c2ccc(OC(=O)CNCCN(CC)CC)c(OCC)c2)ccc1OC(=O)CNCCN(CC)CC, the GI50 (ACHN renal) was 1.92 µM, the TGI (ACHN renal) was 3.54 µM and the GI50 (COLO 205 colon) was 1.88 µM. The TGI (COLO 205 colon) was 4.58 µM, the GI50 (HCT-116 colon) was 1.2 µM and the TGI (HCT-116 colon) was 2.61 µM. The GI50 (HCT-15 colon) was 2.06 µM, the TGI (HCT-15 colon) was 4.66 µM and the GI50 (MALME-3M melanoma) was 1.91 µM. It also gave a TGI (MALME-3M melanoma) of 4.12 µM, a GI50 (PC-3 prostate) of 1.62 µM and a TGI (PC-3 prostate) of 10.7 µM. For the same molecule, the GI50 (SF-539 CNS) was 1.38 µM, the TGI (SF-539 CNS) was 3.1 µM and the GI50 (SK-OV-3 ovarian) was 5.39 µM. It also gave a TGI (SK-OV-3 ovarian) of 20.8 µM, a GI50 (UACC-62 melanoma) of 1.53 µM and a TGI (UACC-62 melanoma) of 3.16 µM. The GI50 (UO-31 renal) was 1.7 µM and the TGI (UO-31 renal) was 3.82 µM.
